Source: patent publication US20070208001A1, “Modulators of 11- beta hydroxyl steroid dehydrogenase type 1, pharmaceutical compositions thereof, and methods of using the same” (priority 2006, published 2007)

How the values were obtained:
human 11βHSD1 = biological target: T1, human 11βHSD1 (Homo sapiens, UniProt P28845); experiment: Enzymatic assay of 11βHSD1 (Scintillation Proximity Assay, clarified lysates); type: biochemical; conditions: SPA, HEK-293 lysate expressing full-length human 11βHSD1, 25 nM 3H-cortisone, 400 μM NADPH, 37° C., one hour
T1 construct: made in house; host or cells: HEK-293 transient transfectants; clarified lysate, not purified
Description: Enzymatic assay of 11βHSD1
All in vitro assays were performed with clarified lysates as the source of 11βHSD1 activity. HEK-293 transient transfectants expressing an epitope-tagged version of full-length human 11βHSD1 were harvested by centrifugation. Roughly 2×10^7 cells were resuspended in 40 mL of lysis buffer (25 mM Tris-HCl, pH 7.5, 0.1 M NaCl, 1 mM MgCl2 and 250 mM sucrose) and lysed in a microfluidizer. Lysates were clarified by centrifugation and the supernatants were aliquoted and frozen.
Inhibition of 11βHSD1 by test compounds was assessed in vitro by a Scintillation Proximity Assay (SPA). Dry test compounds were dissolved at 5 mM in DMSO. These were diluted in DMSO to suitable concentrations for the SPA assay. 0.8 μL of 2-fold serial dilutions of compounds were dotted on 384 well plates in DMSO such that 3 logs of compound concentration were covered. 20 μL of clarified lysate was added to each well. Reactions were initiated by addition of 20 μL of substrate-cofactor mix in assay buffer (25 mM Tris-HCl, pH 7.5, 0.1 M NaCl, 1 mM MgCl2) to final concentrations of 400 μM NADPH, 25 nM ^3H-cortisone and 0.007% Triton X-100. Plates were incubated at 37° C. for one hour. […] Quenched plates were incubated for a minimum of 30 minutes at RT prior to reading on a Topcount scintillation counter. […]

healthy volunteers = conditions: after seven days of carbenoxolone treatment; cited from earlier work

T1 sequence (P28845 whole entry): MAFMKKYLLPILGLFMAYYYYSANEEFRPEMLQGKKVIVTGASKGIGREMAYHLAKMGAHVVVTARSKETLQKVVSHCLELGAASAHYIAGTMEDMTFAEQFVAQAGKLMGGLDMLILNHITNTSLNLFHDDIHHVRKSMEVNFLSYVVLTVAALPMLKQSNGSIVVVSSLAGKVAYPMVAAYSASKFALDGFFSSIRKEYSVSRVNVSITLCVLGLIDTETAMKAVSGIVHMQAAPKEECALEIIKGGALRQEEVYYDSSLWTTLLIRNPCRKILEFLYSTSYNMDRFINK

CC(=O)N1CCC2(CC(C3(c4ccc(Cl)cc4)CC3)=NO2)C1 (centres unmarked) [Example 1, 7-Acetyl-3-[1-(4-chlorophenyl)cyclopropyl]-1-oxa-2,7-diazaspiro[4.4]non-2-ene]
IC50 (human 11βHSD1): < 5 µM

CC1(C)[C@@H](OC(=O)CCC(=O)O)CC[C@]2(C)[C@H]3C(=O)C=C4[C@@H]5C[C@@](C)(C(=O)O)CC[C@]5(C)CC[C@@]4(C)[C@]3(C)CC[C@@H]12 [carbenoxolone]
IOP was reduced by (healthy volunteers): 18%
